Experimental data reported in US20220167853A1, “Method for plaque detection” (Koite Health Oy, priority 2019, published 2022).
“Also recorded” adds a separate entry of the source.

Assays:
[1] = tested on: Streptococcus mutans biofilm; assay: Streptococcus mutans monospecies biofilm model, PDT with indocyanine green, viability by serial dilution CFU; assay type: cell-based, Streptococcus mutans (ATCC 25175); conditions: 250 μg/ml ICG with 810 nm light
Description: Two separate monospecies biofilm model experiments were performed to study the effect of reoccurring photodynamic therapy on biofilm formation. The Streptococcus mutans biofilm experiments were divided in different classes based on biofilm age and the therapy given.
The one-time PDT treatment was performed for 1 day, 2 days and 4 days old biofilms. […] The viability of the bacteria was assessed by serial dilution CFU method which was performed after the last photodynamic therapy treatment.
Streptococcus mutans (ATCC 25175) bacteria was grown over 18 h in growth chamber (36° C., 5% CO2) in BHI-broth (Bio-Rad 3564014). The resulting bacteria suspension was diluted with 0.9% NaCl suspension to optical density of 0.46.
Biofilm was grown on bottom of well plate by adding 100 ul diluted Streptococcus mutans suspension in each well with 100 μl of BHI-broth growth medium. The bacteria plate was incubated in growth chamber (36 Celsius, 5% CO2) and BHI-broth medium changed daily.
Before the light exposure, the growth medium was replaced with indocyanine green suspension which was let to incubate in dark in room temperature for 10 minutes. […] The treatment time was calculated from desired light amount and known intensity.
The light exposure was performed by placing the well plate under known LED light source. The given light intensity was analyzed with Thorlabs PM100D and S121C sensor head. […]

[2] = tested on: Streptococcus mutans biofilm; assay: Potentiation of chlorhexidine with dual wavelength PDT; assay type: cell-based; conditions: versus reference and treatment with only one wavelength; FIG. 3
Text: Treatment can be combined with use of antibiotics and disinfectants for synergist antipathogen effect. For example, the use phototherapy with chlorhexidine to target biofilms is new to oral disinfection. The results of dual wavelength photodynamic therapy with chlorhexidine against Streptococcus mutans biofilm shown in appendix III are completely new. […] The effectivity is based on photon and anionic photosensitizer ability to penetrate deeper into biofilm and provide efficient bacteria killing inside the biofilm as well as on the surface. The chlorhexidine effect is mostly present only on the surface of the biofilm. High energy photons reduce the biofilm EPS matrix formation that further increases the chlorhexidine effectivity in subsequent treatments. In a second series of tests, potentiation of chlorhexidine with dual wavelength PDT was evaluated.

[3] = tested on: monospecies biofilm of Streptococcus sobrinus; conditions: monospecies biofilm vs planktonic form; cited from earlier work

Compound | effect of PDT treatment on biofilm (CFU) ([1]; single wavelength, 4 days old biofilm treated every day) | effect of PDT treatment on biofilm (CFU) ([1]; treatment given once to 1, 2 and 4 days old biofilms) | antimicrobial effect of chlorhexidine combined with multi (dual) wavelength PDT [2] | greater concentration needed to kill biofilm than planktonic counterpart [3] [time]
CC1(C)C(/C=C/C=C/C=C/C=C2\N(CCCCS(=O)(=O)O)c3ccc4ccccc4c3C2(C)C)=[N+](CCCCS(=O)(=O)[O-])c2ccc3ccccc3c21 [ICG, Indocyanine Green] | poor treatment effect | strong effect |  | 
[H]/N=C(\N/C(=N/[H])NCCCCCCNC(=N)NC(=N)Nc1ccc(Cl)cc1)Nc1ccc(Cl)cc1 [chlorhexidine] |  |  | increased substantially; also recorded: much stronger effect | 100
amine fluoride |  |  |  | 100
